Values quoted from earlier work as cited in patent US20180318450A1, “ENHANCED SURGICAL VISUALIZATION OF VIABLE TISSUE WITH SELECTIVE DYE” (priority 2017, published 2018).
Starred links: 1 amine or outer side, 2 acyl side, 3 side chain; linkers in the order of their positions; H or OH if unused. Positions of bridges follow the written chain, without caps; N, C: chain ends. Non-standard residues stand in square brackets, D forms with d. Residues, ends and D or L forms follow the SMILES beside them. Trp(2-yl) = O=C([C@H](Cc1c([*:3])[nH]c2ccccc12)N[*:1])[*:2]; Leu(4R-OH,5-OH) = C[C@](O)(CO)C[C@H](N)C(=O)O; cisHyp = O=C(O)[C@@H]1C[C@H](O)CN1

System: tumor proliferation
Settings: toxin attached to C-terminus of ph low insertion peptide, cells in acidic environment

For `C[C@@H]1NC(=O)[C@H](C[C@@](C)(O)CO)NC(=O)[C@@H]2Cc3c([nH]c4ccccc34)SC[C@H](NC(=O)[C@@H]([C@H](C)O)NC1=O)C(=O)N1C[C@@H](O)C[C@H]1C(=O)N[C@@H](C)C(=O)N2` [phalloidin] (cyclo(A[dT]C[cisHyp]A[Trp(2-yl)][Leu(4R-OH,5-OH)]); thioether 3-6), the tumor proliferation is listed as “prohibited tumor proliferation”.
